Measured values published in patent US5696113A, “Antipsychotic agents, compositions and method of use” (Hoechst Marion Roussel, Inc., priority 1996, dated 1997).
Counter-ions that a name gives are not always drawn. Like-named read-outs stand apart in the source and are kept apart here.

Experiments:
apomorphine climbing = experiment: Climbing Mouse Assay (apomorphine-induced climbing); format: in vivo, mice (CK-1 male); conditions: ip, read-out: CLIMBING MOUSE ASSAY (ED50 mg/kg, ip)
Protocol: Antipsychotic activity is determined in the climbing mice assay by a method similar to those described by P. Protais, et al, Psychopharmacol.
Subject […] male mice (23-27 grams) are group-housed under standard laboratory conditions. The mice are individually placed in wire mesh stick cages (4"×10") and are allowed one hour for adaption and exploration of the new environment.
For evaluation of climbing, 3 readings are taken at 10, 20, and 30 minutes after apomorphine administration according to the following scale:
Mice consistently climbing before the injection of apomorphine are discarded.
With full-developed apomorphine climbing, the animals are hanging on to the cage walls, rather motionless, over long periods of time. By contrast, climbs due to mere motor stimulation usually only last a few seconds.
The climbing scores are individually totaled (maximal score: 6 per mouse over 3 readings) and the total score of the control group (vehicle intraperitoneally, apomorphine subcutaneously) is set to 100%.

[1] = test system: dopamine neurons, ventral tegmental area (A10); experiment: Chronic single-unit dopamine neuron sampling, A10 region; format: in vivo, male Wistar rats; conditions: ip, once a day for 21 days, vs vehicle; dose 20 mg/kg for the hydrobromide compound
Protocol: Dopamine Neuron Sampling.
Compounds were prepared as percent base.

[2] = molecular target: T1, 5HT2 Site (cerebral cortical membranes) (Rattus norvegicus, UniProt P14842); experiment: 3H-Spiroperidol binding to cerebral cortical membranes (5HT2 site); parameters: species or system rats; conditions: 3H-spiroperidol 1.5 nM, 37° C., 10 min, pH 7.7
T1 construct: from tissue; host or cells: rat cerebral cortex (membranes)
T1 sequence (P14842 whole entry): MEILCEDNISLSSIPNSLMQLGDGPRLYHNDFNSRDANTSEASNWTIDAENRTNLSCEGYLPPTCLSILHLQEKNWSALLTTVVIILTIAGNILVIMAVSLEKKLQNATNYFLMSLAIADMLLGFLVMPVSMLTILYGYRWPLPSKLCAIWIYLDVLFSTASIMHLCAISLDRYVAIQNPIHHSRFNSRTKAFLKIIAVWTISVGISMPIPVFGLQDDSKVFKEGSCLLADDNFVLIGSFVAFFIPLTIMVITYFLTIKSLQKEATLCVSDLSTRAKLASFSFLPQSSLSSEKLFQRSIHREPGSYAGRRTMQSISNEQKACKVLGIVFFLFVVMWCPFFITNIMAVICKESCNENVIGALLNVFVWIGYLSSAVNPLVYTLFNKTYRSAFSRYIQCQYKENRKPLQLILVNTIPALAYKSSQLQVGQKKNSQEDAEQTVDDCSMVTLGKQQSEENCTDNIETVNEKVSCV
Protocol: (§1) D2 /5T-HT2 BINDING ASSAYS
^3 H-Spiroperidol Binding to Cerebral Cortical membranes (5HT2 Site) in Rats
Nonspecific binding was determined in the presence of 5 μM methysergide. The incubation was terminated by rapid filtration through Whatman GF/B filters.

[3] = molecular target: T2, D2-Dopaminergic Site (striatal membranes) (Rattus norvegicus, UniProt P61169); experiment: 3H-Spiroperidol binding to striatal membranes (D2-dopaminergic site); parameters: species or system rats
T2 construct: from tissue; host or cells: rat striatum (membranes)
T2 sequence (P61169 whole entry): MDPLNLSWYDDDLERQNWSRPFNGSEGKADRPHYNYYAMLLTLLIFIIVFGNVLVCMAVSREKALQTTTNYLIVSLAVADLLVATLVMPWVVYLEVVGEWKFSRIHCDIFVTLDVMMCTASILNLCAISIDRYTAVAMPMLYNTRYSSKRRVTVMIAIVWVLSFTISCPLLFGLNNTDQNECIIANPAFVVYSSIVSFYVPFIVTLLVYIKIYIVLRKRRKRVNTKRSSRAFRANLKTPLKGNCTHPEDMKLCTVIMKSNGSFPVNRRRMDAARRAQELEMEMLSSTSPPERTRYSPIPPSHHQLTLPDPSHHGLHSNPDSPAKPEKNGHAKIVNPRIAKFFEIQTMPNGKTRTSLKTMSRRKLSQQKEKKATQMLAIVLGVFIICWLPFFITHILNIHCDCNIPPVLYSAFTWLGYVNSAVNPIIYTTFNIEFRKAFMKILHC
Protocol: as §1
^3 H-Spiroperidol Binding to Striatal Membranes (D2 -Dopaminergic Site) in Rats
Striatal membranes were incubated with ^3 H-spiroperidol (0.4 nM) and various concentrations of test drug at 37° C. for 10 minutes in 1 ml of 0.05 M Tris-HCl buffer, pH 7.7 containing 120 mM NaCl, 5 mM KCl, 2 mM CaCl2, and 1 mM MgCl2. Nonspecific binding was determined in the presence of 2μM(+)-butaclamol. Bound ligand was separated by rapid filtration through Whatman GF/B filters.

[4] = test system: postsynaptic dopamine receptors; experiment: Apomorphine stereotypy inhibition in rats (APO-S); format: in vivo, male Wistar rats; conditions: ip, apomorphine 1.5 mg/kg s.c.
Protocol: APOMORPHINE STEREOTYPY INHIBITION IN RATS
For a primary screen, a group size of six is used. Drug is administered one hour prior to scoring and the animals are placed in individual clear plastic cages (24×14×13 cm). The control group receives vehicle. Apomorphine is prepared at a concentration of 15 mg/10 ml in a […] ascorbic acid stock solution prepared with 30 mg of ascorbic acid in 100 ml of 1% saline to increase the stability of the apomorphine while in solution. […] Stereotypic behavior is noted 10 minutes later. […] Stereotypic behavior is defined as sniffing, licking or chewing behavior which occurs in a repetitive manner and is continuous for a 10-second period in the presence of white noise. The animal is considered protected if this behavior is interrupted. The percent effectiveness of a drug is determined by the number of animals protected in each group.
A dose-response is determined in the same manner as a primary screen except that a group size of 10 is used and the animals are dosed in a randomized manner. One group receives vehicle. ED50 values for inhibition of stereotypy are calculated by means of Litchfield and Wilcoxon Analysis.

[5] = test system: dopamine neurons, substantia nigra (A9); experiment: Chronic single-unit dopamine neuron sampling, A9 region; conditions: for % Change in A9 region (dopamine neuron sampling): ip, once a day for 21 days, vs vehicle, dose 20 mg/kg for the hydrobromide compound
Protocol: Dopamine Neuron Sampling. Male Wistar rats (280-360 grams) were used in this procedure. They were housed for at least 48 hours in a climate-controlled vivarium with food and water continuously available. Each rat was initially anesthetized with chloral hydrate (400 mg/kg ip) and maintained with additional injections as needed throughout the experiment. The animal was mounted in a stereotaxic apparatus (Kopf, model 900). The cranium was exposed, cleaned of connective tissue and dried. The skull overlying both the substantia nigra [A9:anterior (A) 3000-3400 microns, lateral (L) 1800-2400 microns from lambda)] and the ventral tegmental area (A10: A3000-3400 microns, L 400-1000 microns from lambda)^47 was removed. Using the dura as a point of reference, a micropipette driven by a hydraulic microdrive was lowered through the opening in the skull at vertical 6000-8500 microns. Spontaneously firing dopamine neurons within both the substantia nigra and the ventral tegmental areas were counted by lowering the electrode into twelve separate tracks (each track separated from the other by 200 microns) in each region. The sequence of the tracks was kept constant, forming a block of tissue which could be repoducibly located from animal to animal.
Extracellular neuronal signals were sampled using a single barrel micropipette approximately one micron at its tip, and filled with 2M NaCl saturated with 1% pontamine sky blue dye. The in vitro impedance of this piper (measured with a Winston Electronics Co., BL-1000 Micro Electrode Tester) was between 5 and 10 megaohms. […] Only cells whose electrophysiological characteristics matched those previously established for midbrain dopamine neurons were counted.
At the end of each experiment, the location of the last recorded track tip was marked by passing 25 microampere cathodal current through the recording micropipette barrel for 15 minutes in order to deposit a spot of dye. The rat was sacrificed; the brain was then removed, dissected and frozen on a bed of dry ice. Frozen serial sections (20 microns in width) were cut, mounted, and stained with cresyl violet and examined using a light microscope.
Animals pretreated with vehicle prior to neuronal sampling served as controls. Compounds were prepared as percent base. Each compound was suspended in distilled water and one drop of Tween 80, and kept constantly agitated during dosing. All compounds were delivered at a dodge volume of 1 mg/kg by the intraperitoneal route. For animals used in the chronic single-unit, dopamine neuron sampling assay, the compounds were administered once a day for 21 days, and dopamine neuron sampling was begun two hours after the last dose on the 21st day. […]

[6] = test system: dopamine neurons, substantia nigra (A9); conditions: repeated administration; background statement; cited from earlier work
[7] = apomorphine 1.5 mg/kg s.c., linear regression

SMILES | ED50 (apomorphine climbing; [7]) [mg/kg] | % Change in A10 region (dopamine neuron sampling) [1] [%] | IC50 [2] [nM] | IC50 ([3]; 3H-spiroperidol 0.4 nM, 37° C., 10 min, pH 7.7) [nM] | D2/5-HT2 ([3]; ratio of D2 IC50 to 5-HT2 IC50) | APOMORPHINE STEREOTYPY INHIBITION (% inhibition) ([4]; at 4.0 mg/kg) [%] | % Change in A9 region (dopamine neuron sampling) [5] | depolarization inactivation of the DA neurons in the A9 area [6] | APOMORPHINE STEREOTYPY INHIBITION (ED50) ([4]; Litchfield and Wilcoxon) [mg/kg] | ED50 ([4]; Rattus norvegicus, Litchfield and Wilcoxon) [mg/kg] | number of DA neurons in the A9 area (EPS propensity) ([5]; result in words) | ED50 (apomorphine climbing) [mg/kg]
COc1ccc2c(N3CCN(CCCC(=O)c4ccc(F)cc4)CC3)noc2c1 [Example 1b, 3-[1-(4'-Fluorobenzoyl)propyl-4-piperazine]-6-methoxy-1,2-benzisoxazole] | 5.28 | – | – | – | – | – | – | – | – | – | – | –
O=C(CCCN1CCN(c2noc3cc(O)ccc23)CC1)c1ccc(F)cc1 [Example 3, 3-[1-(4'-Fluorobenzoyl)propyl-4-piperazinyl]-6-hydroxy-1,2-benzisoxazole hydrobromide] | 0.4 | -44.9 | 45 | 240 | 5.3 | 0 | +1.4% | – | – | – | – | –
O=C(CCCN1CCC(O)(c2ccc(Cl)cc2)CC1)c1ccc(F)cc1 [Haloperidol] | 0.11 | -35 | – | – | – | – | -30% | cause a depolarization inactivation of the DA neurons in the A9 area of the brain | 0.6 | – | – | –
CN1CCN(C2=Nc3cc(Cl)ccc3Nc3ccccc32)CC1 [Clozapine] | – | -79 | – | – | – | – | +37% | – | – | > 40 | do not cause a decrease in the number of DA neurons in the A9 area | 8.1
